Test results as given in PubChem BioAssay AID248 (DTP/NCI, 2004).
Values joined by “and” are separate entries in the source; they are usually repeats but may differ in a detail not shown here. Equal entries are not always repeated. Toxic doses and inconclusive results are not listed.

Tested on: L1210 leukemia ip in BDF1 mice, survival T/C
Assay: NCI In Vivo Anticancer Drug Screen. Data for tumor model L1210 Leukemia (intraperitoneal) in B6D2F1 (BDF1) mice
Settings: higher = longer survival
Outline: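 Ratio derived from survival: compound-dosed mice over vehicle-dosed mice, all bearing a transplantable tumor.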

[1] = endpoint: mean survival time, dose: 50.0 mg/kg/injection, schedule: Q01DX001 (ip), vehicle: saline
[2] = endpoint: mean survival time, dose: 100.0 mg/kg/injection, schedule: Q01DX001 (ip), vehicle: saline
[3] = endpoint: mean survival time, dose: 100.0 mg/kg/injection, schedule: Q01DX009 (ip), vehicle: saline with Tween-80
[4] = endpoint: mean survival time, dose: 100.0 mg/kg/injection, schedule: Q04DX003 (ip), vehicle: saline with Tween-80
[5] = endpoint: mean survival time, dose: 200.0 mg/kg/injection, schedule: Q01DX009 (ip), vehicle: saline with Tween-80
[6] = endpoint: mean survival time, dose: 200.0 mg/kg/injection, schedule: Q04DX003 (ip), vehicle: saline with Tween-80
[7] = endpoint: mean survival time, dose: 200.0 mg/kg/injection, schedule: Q01DX001 (ip), vehicle: saline
[8] = endpoint: mean survival time, dose: 400.0 mg/kg/injection, schedule: Q01DX001 (ip), vehicle: saline
[9] = endpoint: mean survival time, dose: 50.0 mg/kg/injection, schedule: Q01DX009 (ip), vehicle: saline
[10] = endpoint: mean survival time, dose: 100.0 mg/kg/injection, schedule: Q01DX009 (ip), vehicle: saline
[11] = endpoint: mean survival time, dose: 100.0 mg/kg/injection, schedule: Q04DX003 (ip), vehicle: saline
[12] = endpoint: mean survival time, dose: 200.0 mg/kg/injection, schedule: Q01DX009 (ip), vehicle: saline
[13] = endpoint: mean survival time, dose: 200.0 mg/kg/injection, schedule: Q04DX003 (ip), vehicle: saline
[14] = endpoint: mean survival time, dose: 400.0 mg/kg/injection, schedule: Q04DX003 (ip), vehicle: saline
[15] = endpoint: mean survival time, dose: 75.0 mg/kg/injection, schedule: Q01DX001 (ip), vehicle: saline
[16] = endpoint: mean survival time, dose: 150.0 mg/kg/injection, schedule: Q01DX001 (ip), vehicle: saline
[17] = endpoint: mean survival time, dose: 400.0 mg/kg/injection, schedule: Q01DX009 (ip), vehicle: saline

SMILES: CC1(C)N=C(N)N=C(N)N1c1cccc(CCCCc2c(Cl)cccc2Cl)c1
- T/C (endpoint: mean survival time, dose: 25.0 mg/kg/injection, schedule: Q01DX001 (ip), vehicle: saline): 105 % of control
- T/C [1]: 86 % of control
- T/C [2]: 95 % of control

SMILES: Cc1ccc(S(=O)(=O)N/N=C/c2cccs2)cc1
- T/C [3]: 90 % of control
- T/C [4]: 98 % of control
- T/C [5]: 88 % of control
- T/C [6]: 98 % of control
- T/C (endpoint: mean survival time, dose: 400.0 mg/kg/injection, schedule: Q01DX009 (ip), vehicle: saline with Tween-80): 91 % of control
- T/C (endpoint: mean survival time, dose: 400.0 mg/kg/injection, schedule: Q04DX003 (ip), vehicle: saline with Tween-80): 109 % of control

SMILES: CCCCc1[nH]ccc2c(C)c3nc4ccccc4c3cc12
- T/C [1]: 96 % of control
- T/C [2]: 97 % of control
- T/C [7]: 96 % of control
- T/C [8]: 97 % of control

SMILES: COc1ccccc1NC(=O)N(Cc1ccccc1)C(C)(C)C
- T/C (endpoint: mean survival time, dose: 100.0 mg/kg/injection, schedule: Q04DX002 (ip), vehicle: Klucel (hydroxypropylcellulose) (HPC)): 95 % of control
- T/C (endpoint: mean survival time, dose: 200.0 mg/kg/injection, schedule: Q04DX002 (ip), vehicle: Klucel (hydroxypropylcellulose) (HPC)): 100 % of control
- T/C (endpoint: mean survival time, dose: 400.0 mg/kg/injection, schedule: Q04DX002 (ip), vehicle: Klucel (hydroxypropylcellulose) (HPC)): 88 % of control

SMILES: Nc1nc2c(c(-c3ccccc3)n1)CN(c1ccc(Br)cc1)C2=O
- T/C [9]: 95 % of control
- T/C [10]: 92 % of control
- T/C [11]: 90 % of control
- T/C [12]: 92 % of control
- T/C [13]: 95 % of control
- T/C [14]: 90 % of control

SMILES: O=CNc1ccccc1Sc1ccc(C(=O)O)cc1[N+](=O)[O-]
- T/C (endpoint: mean survival time, dose: 100.0 mg/kg/injection, schedule: Q04DX003 (ip), vehicle: Klucel (hydroxypropylcellulose) (HPC)): 100 % of control
- T/C (endpoint: mean survival time, dose: 200.0 mg/kg/injection, schedule: Q04DX003 (ip), vehicle: Klucel (hydroxypropylcellulose) (HPC)): 107 % of control
- T/C (endpoint: mean survival time, dose: 400.0 mg/kg/injection, schedule: Q04DX003 (ip), vehicle: Klucel (hydroxypropylcellulose) (HPC)): 104 % of control

SMILES: Nc1ccc(C(=O)OCCCCC2CCCC2N)cc1 (stereo unspecified)
- T/C [15]: 97 % of control
- T/C [16]: 113 % of control

SMILES: Cc1ccc(NCc2cccc3ccccc23)c(C)c1
- T/C [10]: 96 % of control
- T/C [11]: 104 % of control
- T/C [12]: 97 % of control
- T/C [13]: 102 % of control
- T/C [17]: 94 % of control
- T/C [14]: 96 % of control

SMILES: CN(C)Cc1cc(C23CC4CC(CC(C4)C2)C3)cc(-c2ccccc2)c1O
- T/C (endpoint: mean survival time, dose: 100.0 mg/kg/injection, schedule: Q04DX003 (ip), vehicle: acetone): 95 % of control
- T/C (endpoint: mean survival time, dose: 200.0 mg/kg/injection, schedule: Q04DX003 (ip), vehicle: acetone): 98 % of control
- T/C (endpoint: mean survival time, dose: 400.0 mg/kg/injection, schedule: Q04DX003 (ip), vehicle: acetone): 90 % of control

SMILES: CC(=O)CC(=O)CC(O)(C(F)(F)F)C(F)(F)F
- T/C [3]: 96 % of control

SMILES: CC[C@@H](c1ccc(O)cc1)[C@@H](CC)c1ccc(O)cc1
- T/C (endpoint: mean survival time, dose: 25.0 mg/kg/injection, schedule: Q01DX009 (sc), vehicle: steriod suspending solution): 100 % of control and 108 % of control
- T/C (endpoint: mean survival time, dose: 25.0 mg/kg/injection, schedule: Q01DX010 (sc), vehicle: steriod suspending solution): 101 % of control
- T/C (endpoint: mean survival time, dose: 50.0 mg/kg/injection, schedule: Q01DX009 (sc), vehicle: steriod suspending solution): 96 % of control and 100 % of control
- T/C (endpoint: mean survival time, dose: 50.0 mg/kg/injection, schedule: Q01DX010 (sc), vehicle: steriod suspending solution): 95 % of control
- T/C (endpoint: mean survival time, dose: 100.0 mg/kg/injection, schedule: Q01DX009 (sc), vehicle: steriod suspending solution): 96 % of control and 102 % of control
- T/C (endpoint: mean survival time, dose: 100.0 mg/kg/injection, schedule: Q01DX010 (sc), vehicle: steriod suspending solution): 98 % of control
- T/C (endpoint: mean survival time, dose: 125.0 mg/kg/injection, schedule: Q01DX Z (ip), vehicle: carboxymethylcellulose (CMC)): 91 % of control
- T/C (endpoint: mean survival time, dose: 200.0 mg/kg/injection, schedule: Q01DX009 (sc), vehicle: steriod suspending solution): 93 % of control and 99 % of control
- T/C (endpoint: mean survival time, dose: 200.0 mg/kg/injection, schedule: Q01DX010 (sc), vehicle: steriod suspending solution): 95 % of control
- T/C (endpoint: median survival time, dose: 25.0 mg/kg/injection, schedule: Q01DX009 (sc), vehicle: steriod suspending solution): 100 % of control
- T/C (endpoint: median survival time, dose: 50.0 mg/kg/injection, schedule: Q01DX009 (sc), vehicle: steriod suspending solution): 100 % of control and 111 % of control
- T/C (endpoint: median survival time, dose: 100.0 mg/kg/injection, schedule: Q01DX009 (sc), vehicle: steriod suspending solution): 100 % of control and 111 % of control
- T/C (endpoint: median survival time, dose: 200.0 mg/kg/injection, schedule: Q01DX009 (sc), vehicle: steriod suspending solution): 100 % of control

SMILES: O=C1CN(CCN2CC(=O)NC2=S)C(=S)N1
- T/C (endpoint: mean survival time, dose: 100.0 mg/kg/injection, schedule: Q04DX002 (ip), vehicle: saline with Tween-80): 95 % of control
- T/C (endpoint: mean survival time, dose: 200.0 mg/kg/injection, schedule: Q04DX002 (ip), vehicle: saline with Tween-80): 100 % of control

SMILES: CC(C)(C#N)CCCCCC(C)(C)C#N
- T/C [1]: 100 % of control
- T/C [2]: 96 % of control
- T/C [7]: 100 % of control
- T/C [8]: 97 % of control

SMILES: CN(Cc1cnc2nc(N)nc(N)c2n1)c1c(F)cc(C(=O)NC(CCC(=O)O)C(=O)O)cc1F (stereo unspecified)
- T/C (endpoint: mean survival time, dose: 1.5 mg/kg/injection, schedule: Q01DX009 (ip), vehicle: sodium bicarbonate): 114 % of control
- T/C (endpoint: mean survival time, dose: 12.0 mg/kg/injection, schedule: Q01DX009 (ip), vehicle: sodium bicarbonate): 154 % of control

SMILES: O=C(CCN1CC=C(c2ccccc2)CC1)c1ccc(Oc2ccccc2)cc1
- T/C (endpoint: mean survival time, dose: 50.0 mg/kg/injection, schedule: Q01DX009 (ip), vehicle: saline with Tween-80): 100 % of control
- T/C [3]: 96 % of control
- T/C [4]: 96 % of control
- T/C [5]: 105 % of control
- T/C [6]: 94 % of control

SMILES: O=C(O)CC(NC(=O)CP(=O)(O)O)C(=O)O (stereo unspecified)
- T/C (endpoint: mean survival time, dose: 0.39 mg/kg/injection, schedule: Q01DX009 (ip), vehicle: saline): 104 % of control
- T/C (endpoint: mean survival time, dose: 0.78 mg/kg/injection, schedule: Q01DX009 (ip), vehicle: saline): 96 % of control
- T/C (endpoint: mean survival time, dose: 1.56 mg/kg/injection, schedule: Q01DX009 (ip), vehicle: saline): 100 % of control
- T/C (endpoint: mean survival time, dose: 3.12 mg/kg/injection, schedule: Q01DX009 (ip), vehicle: saline): 100 % of control
- T/C (endpoint: mean survival time, dose: 6.25 mg/kg/injection, schedule: Q01DX009 (ip), vehicle: saline): 100 % of control
- T/C (endpoint: mean survival time, dose: 12.5 mg/kg/injection, schedule: Q01DX009 (ip), vehicle: saline): 98 % of control
- T/C (endpoint: mean survival time, dose: 25.0 mg/kg/injection, schedule: Q01DX009 (ip), vehicle: saline): 93 % of control and 94 % of control
- T/C [9]: 96 % of control and 98 % of control
- T/C [10]: 104 % of control and 122 % of control
- T/C [12]: 117 % of control and 122 % of control
- T/C (endpoint: mean survival time, dose: 225.0 mg/kg/injection, schedule: Q01DX009 (ip), vehicle: saline): 113 % of control
- T/C (endpoint: mean survival time, dose: 240.0 mg/kg/injection, schedule: Q04DX003 (ip), vehicle: saline): 113 % of control
- T/C (endpoint: mean survival time, dose: 250.0 mg/kg/injection, schedule: Q01DX009 (ip), vehicle: saline): 109 % of control
- T/C (endpoint: mean survival time, dose: 275.0 mg/kg/injection, schedule: Q01DX009 (ip), vehicle: saline): 109 % of control
- T/C (endpoint: mean survival time, dose: 343.0 mg/kg/injection, schedule: Q04DX003 (ip), vehicle: saline): 117 % of control
- T/C [17]: 89 % of control
- T/C (endpoint: mean survival time, dose: 490.0 mg/kg/injection, schedule: Q04DX003 (ip), vehicle: saline): 113 % of control
- T/C (endpoint: mean survival time, dose: 700.0 mg/kg/injection, schedule: Q04DX003 (ip), vehicle: saline): 119 % of control

SMILES: O=[N+]([O-])c1ccc(P(=O)(Nc2ccc(Cl)cc2)Nc2ccc(Cl)cc2)cc1
- T/C [15]: 86 % of control
- T/C [16]: 86 % of control
- T/C (endpoint: mean survival time, dose: 300.0 mg/kg/injection, schedule: Q01DX001 (ip), vehicle: saline): 91 % of control

SMILES: O=C(Nc1ccccc1Cl)c1cccnc1
- T/C (endpoint: mean survival time, dose: 100.0 mg/kg/injection, schedule: Q04DX003 (ip), vehicle: other): 96 % of control
- T/C (endpoint: mean survival time, dose: 200.0 mg/kg/injection, schedule: Q04DX003 (ip), vehicle: other): 97 % of control
- T/C (endpoint: mean survival time, dose: 400.0 mg/kg/injection, schedule: Q04DX003 (ip), vehicle: other): 94 % of control

SMILES: O=C1C=C(c2ccccc2)OC(c2ccccc2)C1 (stereo unspecified)
- T/C (endpoint: mean survival time, dose: 75.0 mg/kg/injection, schedule: Q01DX009 (ip), vehicle: Klucel (hydroxypropylcellulose) (HPC)): 97 % of control
- T/C (endpoint: mean survival time, dose: 150.0 mg/kg/injection, schedule: Q01DX009 (ip), vehicle: Klucel (hydroxypropylcellulose) (HPC)): 99 % of control
- T/C (endpoint: mean survival time, dose: 300.0 mg/kg/injection, schedule: Q01DX009 (ip), vehicle: Klucel (hydroxypropylcellulose) (HPC)): 99 % of control

SMILES: CC(N)C12CC3CC(CC(C3)C1)C2 (stereo unspecified)
- T/C (endpoint: mean survival time, dose: 75.0 mg/kg/injection, schedule: Q01DX009 (ip), vehicle: saline): 94 % of control
